The results in this text go back to patent US8338451B2, “Polysubstituted derivatives of 2-heteroaryl-6-phenylimidazo[1,2-a]pyridines, and preparation and therapeutic use thereof” (Sanofi, priority 2008, dated 2012).

For orientation: EC50 means the concentration needed to bring the measured effect to its halfway point. Low readings indicate an effect from little substance, high ones a need for much substance.

This assay addresses T1, mouse Nurr1 receptor (Mus musculus, UniProt Q06219).
T1 construct: a cell line (N2A) endogenously expressing the mouse Nurr1 receptor; host or cells: Neuro-2A (N2A) mouse neuroblastoma cells stably transfected with 8NBRE-luciferase
In words: In vitro activity on N2A cells: NBRE-luciferase reporter (NOT/Nurr1 modulation). It is filed as cell-based. The settings on record: N2A (Neuro-2A) cells stably transfected with 8NBRE-luciferase, 24 hours incubation. As to the method: Evaluation of the In Vitro Activity on N2A Cells The activity of the compounds according to the invention was evaluated on a cell line (N2A) endogenously expressing the mouse Nurr1 receptor and stably transfected with the NOT binding response element (NBRE) coupled to the luciferase reporter gene. The EC50 values are between 0.01 and 10 μM. The tests were carried out according to the procedure described below. The Neuro-2A cell line comes from a standard commercial source (ATCC). The Neuro-2A clone was obtained from a spontaneous tumour originating from a mouse A albino strain, by R. J Klebe et el. This Neuro-2A line is then stably transfected with 8NBRE-luciferase. The N2A-8NBRE cells are cultured to confluence in 75 cm^2 culture flasks containing DMEM supplemented with 10% of foetal calf serum, 4.5 g/l of glucose and 0.4 mg/ml of geneticin. After one week of culture, the cells are recovered with 0.25% trypsin for 30 seconds, and then resuspended in DMEM without phenol red, containing 4.5 g/l of glucose and 10% of Hyclone defatted serum, and deposited in white, transparent-bottom 96-well plates. The cells are deposited at a rate of 60 000 per well in 75 μl for 24 hours before the addition of the products. […] On the day of the measurement, an equivalent volume (100 μl) of Steadylite is added to each well, followed by a waiting period of 30 minutes in order to obtain complete lysis of the cells and maximum production of the signal. The plates are then measured in a microplate luminescence counter after having been sealed with an adhesive film. […] Each product concentration is diluted beforehand in culture medium before incubation with the cells thus containing a final concentration of 0.625% of DMSO.
A general note: A reporter such as luciferase makes a cellular process visible.

T1 sequence (Q06219 whole entry): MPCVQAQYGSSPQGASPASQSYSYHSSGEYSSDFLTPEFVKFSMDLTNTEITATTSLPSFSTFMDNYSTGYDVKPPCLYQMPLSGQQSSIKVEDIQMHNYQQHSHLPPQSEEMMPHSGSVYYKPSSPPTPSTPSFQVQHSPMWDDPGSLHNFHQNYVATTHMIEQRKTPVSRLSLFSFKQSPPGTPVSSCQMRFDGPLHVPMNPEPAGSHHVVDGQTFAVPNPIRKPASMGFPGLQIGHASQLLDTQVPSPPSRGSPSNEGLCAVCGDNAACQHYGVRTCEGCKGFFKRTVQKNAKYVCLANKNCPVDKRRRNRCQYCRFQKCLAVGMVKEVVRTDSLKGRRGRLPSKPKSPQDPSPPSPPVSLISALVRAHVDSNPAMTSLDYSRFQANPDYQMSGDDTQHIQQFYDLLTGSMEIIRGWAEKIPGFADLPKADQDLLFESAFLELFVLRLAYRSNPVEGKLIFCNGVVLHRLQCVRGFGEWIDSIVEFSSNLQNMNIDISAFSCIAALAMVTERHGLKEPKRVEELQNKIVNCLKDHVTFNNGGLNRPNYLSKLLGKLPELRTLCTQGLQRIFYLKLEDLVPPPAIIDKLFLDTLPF

Consider `OCc1cccc(-c2ccc3nc(-c4ccc5c(c4)OCO5)cn3c2)c1` [Compound 6, {3-[2-(1,3-benzodioxol-5-yl)imidazo[1,2-a]pyridin-6-yl]phenyl}methanol], for which it took 0.9 nM to reach a half-maximal effect (EC50).
As for `OCc1cccc(-c2ccc3nc(-c4cccnc4)cn3c2)c1` [Compound 7], the figure is 1.6 nM; as for `OCc1ccc(-c2ccc3nc(-c4coc5ccccc45)cn3c2)cc1` [Compound 24, [4-[2-(benzofuran-3-yl)imidazo[1,2-a]pyridin-6-yl]phenyl]methanol], 50 nM.
As for `CC(C)(O)c1cccc(-c2ccc3nc(-c4ccccn4)cn3c2)c1` [Compound 50, 2-[3-(2-pyridin-2-ylimidazo[1,2-a]pyridin-6-yl)phenyl]propan-2-ol], the figure is 202 nM.
As for `OCc1c(F)cccc1-c1ccc2nc(-c3cccs3)cn2c1` [Compound 68, [2-fluoro-6-(2-thien-2-ylimidazo[1,2-a]pyridin-6-yl)phenyl]methanol], the figure is 20 nM; as for `OCc1c(F)ccc(-c2ccc3nc(-c4cc5ccccc5o4)cn3c2)c1F` [Compound 79, [3-(2-benzofuran-2-ylimidazo[1,2-a]pyridin-6-yl)-2,6-difluorophenyl]methanol], 5 nM.
For the molecule `Cc1cc(-c2cn3cc(-c4cccc(C(C)(C)O)c4)ccc3n2)no1` [Compound 86, 2-{3-[2-(5-methylisoxazol-3-yl)imidazo[1,2-a]pyridin-6-yl]phenyl}propan-2-ol], the midpoint of the response, the EC50, lay at 71 nM.
